Assay results: ChEMBL document CHEMBL5226371, “Hyperhubeins A-I, Bioactive Sesquiterpenes with Diverse Skeletons from Hypericum hubeiense” (J Nat Prod, 2023)
pIC50: −log10 of the molar value. The source made the active and inactive calls. No cut-off for these calls is given here.

What was measured:
[1] = Inhibition of NO production in LPS-induced mouse BV-2 cells incubated for 24 hrs by Griess reagent based microplate reader analysis; type: functional, cell-based; conditions: BV-2, 24 h
[2] = system: PC-12; test: Neuroprotective activity against H2O2-induced cell injury in rat PC-12 cells assessed as increase in cell survival at 10 uM preincubated with compound for 24 hrs followed by H2O2 addition and measured after 24 hrs by MTT assay; type: functional, cell-based; conditions: time 48.0 hrs
[3] = system: BV-2; test: Cytotoxicity against mouse BV-2 cells assessed as reduction in cell viability by MTT-based colorimetric method; type: toxicity
[4] = system: BV-2; test: Anti-neuroinflammatory activity in mouse BV-2 cells assessed as reduction in LPS-induced TLR-4 expression at 10 uM by Western blot analysis; type: functional, cell-based
[5] = system: BV-2; test: Anti-neuroinflammatory activity in mouse BV-2 cells assessed as reduction in LPS-induced COX-2 expression at 10 uM by Western blot analysis; type: functional, cell-based
[6] = system: BV-2; test: Anti-neuroinflammatory activity in mouse BV-2 cells assessed as reduction in LPS-induced iNOS expression at 10 uM by Western blot analysis; type: functional, cell-based
[7] = system: BV-2; test: Anti-neuroinflammatory activity in LPS-stimulated mouse BV-2 cells assessed as reduction in ratio of phosphorylated NF-kappaB to NFkappaB at 10 uM by Western blot analysis; type: functional, cell-based

pIC50 [1] | SMILES | Activity [2] | Activity [3] | further results
5.17 | C=C1CCC[C@H]2[C@@H]1[C@H](C(C)=O)C[C@H]2C(C)C | Active | Non-Toxic | –
5.31 | C=C1CCC(=O)[C@]2(C)CC[C@@H](C(C)C)[C@H](O)[C@@H]12 | – | Non-Toxic | –
– | C=C(C)[C@@H]1CCC2=C[C@H](OC)C[C@@H](C)[C@]2(C)C1 | Active | – | –
5.23 | C=C1CCC[C@H]2[C@@H]1[C@@H](C(C)=O)C[C@H]2C(C)C | Active | Non-Toxic | –
– | C=C(C)[C@H]1CC[C@]2(C)O[C@H]2CC[C@@]2(C)O[C@@H]2C1 | Active | – | –
– | C=C1CC[C@H]2O[C@]2(C)CC[C@@H]2[C@@H]1CC2(C)C | Active | – | –
– | C=C(CO[C@@H]1O[C@H](CO)[C@@H](O)[C@H](O)[C@H]1O)[C@@H]1CC[C@@]2(O)CCC[C@@H](C)[C@]2(C)C1 | Active | – | –
– | C=C(C)[C@@H]1CC[C@@]2(C)[C@H](O)CC[C@@](C)(O)[C@@H]2C1 | Active | – | –
5.21 | C=C(C)[C@@H]1CC(=O)C2=CC(=O)C[C@@H](C)[C@]2(C)C1 | – | Non-Toxic | Activity [4]: Active; Activity [5]: Active; Activity [6]: Active; Activity [7]: Active
– | CC1=CC[C@H](O)[C@@]2(C)CC[C@H](C(C)(C)O[C@@H]3O[C@H](CO)[C@@H](O)[C@H](O)[C@H]3O)C[C@@H]12 | Active | – | –

SMILES | pIC50 [1] | Activity [2] | Activity [3] | further results
O=c1c(O)c(-c2ccc(O)c(O)c2)oc2cc(O)cc(O)c12 [QUERCETIN] | 5.19 | – | – | –
